# Results: patent US20240041830A1, “CIRCULATING BIOMARKERS OF RESPONSE TO PD-1/PD-L1 BLOCKADE AND GSK-3 INHIBITION” (Brown University, priority 2022, published 2024)
# Columns and labels:
# [1] = tested on: refractory solid tumors of multiple tissue origins; assay: Phase 1 clinical trial (NCT03678883), survival; type: in vivo, human
# Protocol: Clinical specimens. Archival tumor specimens and peripheral blood samples were collected from patients enrolled in the Phase I study of elraglusib (Clinicaltrials.gov NCT03678883) who received treatment at the Lifespan Cancer Institute (Providence, RI, USA). The analysis was conducted in accordance with the Declaration of Helsinki and the International Conference on Harmonization Good Clinical
# Patient plasma concentrations of cytokines from a Phase 1 clinical trial investigating elraglusib correlate with progression-free survival, overall survival, and in vivo response to therapy results. To determine the clinical relevance of the biomarkers of response identified in our murine model, the inventors next employed Luminex 200 technology to analyze plasma samples from patients with refractory solid tumors of multiple tissue origins enrolled in a Phase 1 clinical trial investigating elraglusib (NCT03678883).
# TABLE 14 description. Individual patient information for human cytokine analysis. Tumor type, elraglusib dose (mg, mg/kg), number of cycles, age at enrollment, sex, race, ethnicity, median progression free survival and median overall survival data is shown (N=19).
# [2] = tested on: HCT-116; assay: Western blot analysis; type: cell-based, human
# Protocol: (§1) Pyroptosis assay. Recombinant Human TNF-α (Cat #300-01A, PeproTech, Rocky Hill, NJ, USA) and Recombinant Human IFN-γ (Cat #300-02, PeproTech, Rocky Hill, NJ, USA) were purchased for use in western blot analysis while rhTRAIL was generated in-house. See Kim et al., J. Biol. Chem., 279, 40044-40052 (2004).
# (§2) Western blot analysis. Cells were plated in a 6-well plate and incubated overnight before the spent media was replaced with drugged media. Drug treatment lasted for indicated durations. Protein was extracted using radioimmunoprecipitation (RIPA) assay buffer (Cat #R0278, Sigma-Aldrich, St. Louis, MO, USA) containing cOmplete™, Mini, EDTA-free Protease Inhibitor Cocktail (Cat #4693159001, Roche, Basel, Switzerland) from sub-confluent cells. Denaturing sample buffer was added, samples were boiled at 95° C. for ten minutes, and an equal amount of protein lysate was electrophoresed through NuPAGE™ 4 to 12%, bis-Tris, 1.5 mm, Mini Protein Gels (Invitrogen, Waltham, MA, USA) then transferred to PVDF membranes. The PVDF membrane was blocked with 5% non-fat milk (Sigma-Aldrich, St. Louis, MO, USA) in 1× TTBS. Primary antibodies were incubated with the transferred PVDF membrane in blocking buffer at 4° C. overnight. Secondary antibodies included Goat anti-Rabbit IgG (H+L) Secondary Antibody, HRP (Cat #31460, Invitrogen, Waltham, MA, USA), and Goat anti-Mouse IgG (H+L) Secondary Antibody, HRP (Cat #31430, Invitrogen, Waltham, MA, USA). The signal was detected using Pierce™ ECL Western Blotting Substrate (Cat #32106, Thermo Scientific, Waltham, MA, USA) and a Syngene Imaging System (RRID: SCR_015770).
# (§3) Elraglusib uprequlates tumor cell PD-L1 and proapoptotic pathway expression as well as downregulates immunosuppressive/angiogenic protein expression and pro-survival pathways. The inventors performed Western blot analyses on colorectal cancer cells (HCT-116, HT-29) treated with elraglusib over a 72-hour time course. […] The inventors observed increases in PD-L1 expression as the treatment duration increased. To further elucidate the elraglusib-mediated effects on tumor cell survival, the inventors probed for survival factors Bcl-2 and Survivin and noted decreases in protein expression in both cell lines, especially at the later timepoints (forty-eight hours, seventy-two hours). […] HCT116 cells are heterozygous for β-catenin, harboring one wild-type allele and one mutant allele with inactivation of one of the residues phosphorylated by GSK-3β that is frequently mutated in tumors. Kaler, Augenlicht, & Klampfer, PLoS ONE, 7, e45462 (2012). HT-29, KM12C, and SW480 cells harbor APC mutations. Rowan et al., Proc. Natl. Acad. Sci. USA, 97, 3352 (2000).
# [3] = tested on: HT-29; assay: Western blot analysis; type: cell-based, human
# Protocol: as §1, §2, §3
# [4] = N=19 patients, multiple tumor types
# [5] = Subject 05003, Colorectal, 1 mg/kg
# [6] = Subject 05005, Colorectal, 1 mg/kg, 2 cycles
# [7] = as treatment duration increased
# [8] = especially forty-eight, seventy-two hours
# [9] = low dose, until the 48-hour timepoint
smiles,measurement,setting,value
Cn1cc(C2=C(c3coc4ccc(F)cc34)C(=O)NC2=O)c2cc3c(cc21)OCO3 [elraglusib],median overall survival,[1]; [4],101 days
same,median progression-free survival,[1]; [4],75.9 days
same,OS,[1]; [5],26 days
same,PFS,[1]; [5],26 days
same,PFS,"[1]; Subject 05004, Colorectal, 1 mg/kg",28 days
same,OS,[1]; [6],105 days
same,PFS,[1]; [6],99 days
same,OS,"[1]; Subject 05006, HCC, 2 mg/kg",234 days
same,PFS,"[1]; Subject 05006, HCC, 2 mg/kg",234 days
same,PFS,"[1]; Subject 05009, Cholangiocarcinoma, 2 mg/kg",46 days
same,OS,"[1]; Subject 05011, NSCLC, 2 mg/kg",39 days
same,PFS,"[1]; Subject 05011, NSCLC, 2 mg/kg",31 days
same,PFS,"[1]; Subject 05013, Colorectal, 3.3 mg/kg",130 days
same,PFS,"[1]; Subject 05017, Colorectal, 5 mg/kg",83 days
same,PFS,"[1]; Subject 05018, NSCLC, 5 mg/kg",41 days
same,PFS,"[1]; Subject 05024, Appendix, 7 mg/kg",41 days
same,NF-κB p65 expression,[2]; 72-hour time course,decreased expression
same,PD-L1 expression,[2]; [7],increases
same,Mcl-1 protein expression,[2]; by the 24-hour timepoint,marked decreases
same,Bcl-2 protein expression,[2]; [8],decreases
same,Survivin protein expression,[2]; [8],decreases
same,cleaved PARP (cPARP),[2]; [9],little to no cleaved PARP
same,NF-κB p65 expression,[3]; 72-hour time course,decreased expression
same,PD-L1 expression,[3]; [7],increases
same,Bcl-2 protein expression,[3]; [8],decreases
same,Survivin protein expression,[3]; [8],decreases
same,cleaved PARP (cPARP),[3]; [9],little to no cleaved PARP
